This is an account of results in patent publication US10577329B2, “Fused-bicyclic aryl quinolinone derivatives as mutant-isocitrate dehydrogenase inhibitors” (FORMA Therapeutics, Inc., priority 2015, dated 2020).

Where two headings read alike, the source gives them in different places.

In test [1] the test system is HCT116 isogenic IDH1-R132C mutant cells. Briefly: Cellular 2-HG assay using HCT116 mutant IDH1-R132C cells. In kind it is cell-based. Conditions: Homo sapiens, read-out: HCT116 IDH1 R132C IC50. On the procedure:
(§1) HCT116 isogenic IDH1-R132H and IDH1-R132C mutant cells were cultured in growth media (McCoy's 5A, 10% fetal bovine serum, 1× antibiotic-antimycotic solution and 0.3 mg/mL G418) in 5% CO2 in an incubator at 37° C. To prepare the assay, cells were trypsinized and resuspended in assay media (McCoy's 5A with no L-glutamine, 10% fetal bovine serum, 1× antibiotic-antimycotic solution and 0.3 mg/mL G418). An aliquot of 10,000 cells/100 μL was transferred to each well of a clear 96-well tissue culture plate. The cells were incubated in 5% CO2 at 37° C. in an incubator overnight to allow for proper cell attachment. An aliquot of 50 μL of compound containing assay media were then added to each well and the assay plate was kept in 5% CO2 at 37° C. in an incubator for 24 hours. The media was then removed from each well and 150 μL of a methanol/water mixture (80/20 v/v) was added to each well. The plates were kept at −80° C. freezer overnight to allow for complete cell lysis. An aliquot of 125 μL of extracted supernatant was analyzed by RapidFire high-throughout-mass spectrometry (Agilent) to determine the cellular 2-HG level. The IC50 of a given compound was calculated by fitting the dose response curve of cellular 2-HG inhibition at a given concentration with the four parameter logistic equation

The target of test [2] is IDH1-R132C recombinant protein (Homo sapiens, UniProt O75874, R132C). The test can be described thus: IDH1-R132C enzymatic assay (NADPH consumption, diaphorase/resazurin readout). The test is classed as biochemical. To be noted: 10 nM IDH1-R132C, inhibition of NADPH consumption; read-out: Enzyme IDH1 R132C IC50. On the procedure: (§2) Example 34—IDH1-R132H and IDH1-R132C Enzymatic Assay
(§3) Assays were performed in a 384-well black plate. An aliquot of 250 nL of compound was incubated with 10 μL of 30 nM IDH1-R132H or 10 nM IDH1-R132C recombinant protein in assay buffer (50 mM Tris pH=7.5, 150 mM NaCl, 5 mM MgCl2, 0.1% (w/v) Bovine Serum Albumin, and 0.01% Triton X-100) in each well at 25° C. for 15 minutes. After the plate was centrifuged briefly, an aliquot of 10 μL of 2 mM α-ketoglutarate and 20 μM NADPH solution prepared in assay buffer was then added to each well and the reaction was maintained at 25° C. for 45 minutes. An aliquot of 10 μL of diaphorase solution (0.15 U/mL diaphorase and 30 μM Resazurin in assay buffer) was added to each well. The plate was maintained at 25° C. for 15 minutes and then read on a plate reader with excitation and emission wavelengths at 535 nm and 590 nm, respectively. The IC50 of a given compound was calculated by fitting the dose response curve of inhibition of NADPH consumption at a given concentration with the four parameter logistic equation.

For test [3], the system named is HCT116 isogenic IDH1-R132H mutant cells. The test can be described thus: Cellular 2-HG assay using HCT116 mutant IDH1-R132H cells. In kind it is cell-based. To be noted: Homo sapiens, read-out: HCT116 IDH1 R132H IC50. As for the experimental part: as §1
Test [4] addresses IDH1-R132H recombinant protein (Homo sapiens, UniProt O75874, R132H). The test can be described thus: IDH1-R132H enzymatic assay (NADPH consumption, diaphorase/resazurin readout). Conditions: 30 nM IDH1-R132H, inhibition of NADPH consumption; read-out: Enzyme IDH1 R132H IC50. In kind it is biochemical. As for the experimental part:
as §2, §3

Where [5] appears, read: HCT-116, cellular 2-HG inhibition, 24 hours, RapidFire mass spectrometry.

IDH1-R132H recombinant protein, sequence (O75874 whole entry R132H): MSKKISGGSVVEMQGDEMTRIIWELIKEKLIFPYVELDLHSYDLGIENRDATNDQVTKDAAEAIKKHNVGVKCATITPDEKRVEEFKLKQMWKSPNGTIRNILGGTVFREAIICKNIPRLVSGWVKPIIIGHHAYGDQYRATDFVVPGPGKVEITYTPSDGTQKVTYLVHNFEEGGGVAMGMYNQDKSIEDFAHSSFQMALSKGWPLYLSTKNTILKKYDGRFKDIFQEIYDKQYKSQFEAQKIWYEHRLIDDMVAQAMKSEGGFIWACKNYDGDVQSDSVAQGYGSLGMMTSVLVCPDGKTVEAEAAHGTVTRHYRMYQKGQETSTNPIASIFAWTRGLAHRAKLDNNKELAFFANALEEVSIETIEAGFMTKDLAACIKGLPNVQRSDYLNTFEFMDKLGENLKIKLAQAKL
IDH1-R132C recombinant protein, sequence (O75874 whole entry R132C): as the sequence (O75874 whole entry R132H) above, with H132C counted along it

As to `COc1cc2[nH]c(=O)c(C(C)Nc3ncc4c(n3)N(C)C(=O)OC4)cc2cc1Cl` (racemic) [Compound I-50, 6-chloro-7-methoxy-3-[1-({1-methyl-2-oxo-1H,2H,4H-pyrimido[4,5-d][1,3]oxazin-7-yl}amino)ethyl]-1,2-dihydroquinolin-2-one], the IC50 in test [1] (HCT-116, 24 h) is less than 100 nM; in test [2], less than 100 nM; in test [3] (HCT-116, 24 h), less than 100 nM; in test [4] it was less than 100 nM.
For the molecule `C[C@H](Nc1ncc2cn[nH]c2n1)c1cc2cc(Cl)ccc2[nH]c1=O` [Compound I-45, 6-chloro-3-[(1S)-1-({1H-pyrazolo[3,4-d]pyrimidin-6-yl}amino)ethyl]-1,2-dihydroquinolin-2-one], the IC50 was in the range of 100 to 1000 nM in test [1] (HCT-116, 24 h) and 100 to 1000 nM in test [3] (HCT-116, 24 h).
As for `C[C@H](Nc1ncc2c(n1)N(C)C(=O)OC2)c1cc2cc(Cl)ccc2[nH]c1=O` [Compound I-47, 6-chloro-3-[(1S)-1-({1-methyl-2-oxo-1H,2H,4H-pyrimido[4,5-d][1,3]oxazin-7-yl}amino)ethyl]-1,2-dihydroquinolin-2-one], the IC50 in test [1] (setting [5]) and in test [3] (setting [5]) was less than 100 nM each time.
With `C[C@H](Nc1ncc2c(n1)N(C)C(=O)OC2)c1cc2cc(Cl)c(OCc3ccccn3)cc2[nH]c1=O` [Compound I-48, 6-chloro-3-[(1S)-1-({1-methyl-2-oxo-1H,2H,4H-pyrimido[4,5-d][1,3]oxazin-7-yl}amino)ethyl]-7-(pyridin-2-ylmethoxy)-1,2-dihydroquinolin-2-one], the 50% inhibitory concentration (IC50) in test [1] (setting [5]) and in test [3] (setting [5]) was less than 100 nM each time.
As for `C[C@H](Nc1ncc2c(n1)NC(=O)OC2)c1cc2cc(Cl)ccc2[nH]c1=O` [Compound I-49, 6-chloro-3-[(1S)-1-({2-oxo-1H,2H,4H-pyrimido[4,5-d][1,3]oxazin-7-yl}amino)ethyl]-1,2-dihydroquinolin-2-one], the IC50 in test [1] (setting [5]) was 100 to 1000 nM; in test [3] (setting [5]), less than 100 nM.
Turning to `COc1cc2[nH]c(=O)c([C@H](C)Nc3ncc4c(n3)N(C)C(=O)OC4)cc2cc1Cl` [Compound I-51, 6-chloro-7-methoxy-3-[(1S)-1-({1-methyl-2-oxo-1H,2H,4H-pyrimido[4,5-d][1,3]oxazin-7-yl}amino)ethyl]-1,2-dihydroquinolin-2-one], the 50% inhibitory concentration (IC50) in test [1] (HCT-116, 24 h) is less than 100 nM; in test [3] (HCT-116, 24 h), less than 100 nM.
Take `CC(C)Cn1c(=O)oc2cnc(N[C@@H](C)c3cc4cc(Cl)ccc4[nH]c3=O)nc21` [Compound I-55, 6-chloro-3-[(1S)-1-{[3-(2-methylpropyl)-2-oxo-2H,3H-[1,3]oxazolo[4,5-d]pyrimidin-5-yl]amino}ethyl]-1,2-dihydroquinolin-2-one]: the IC50 in test [1] (setting [5]) is 1000 to 10000 nM; in test [3] (setting [5]), 100 to 1000 nM.
Regarding `C[C@H](Nc1ncc2oc(=O)[nH]c2n1)c1cc2cc(Cl)ccc2[nH]c1=O` [Compound I-56, 6-chloro-3-[(1S)-1-({2-oxo-2H,3H-[1,3]oxazolo[4,5-d]pyrimidin-5-yl}amino)ethyl]-1,2-dihydroquinolin-2-one], the IC50 in test [1] (HCT-116, 24 h) was greater than 10000 nM; in test [3] (HCT-116, 24 h) it was 1000 to 10000 nM.
For `C[C@H](Nc1ncc2oc(=O)n(C)c2n1)c1cc2cc(Cl)ccc2[nH]c1=O` [Compound I-57, 6-chloro-3-[(1S)-1-({3-methyl-2-oxo-2H,3H-[1,3]oxazolo[4,5-d]pyrimidin-5-yl}amino)ethyl]-1,2-dihydroquinolin-2-one] the same measures were 100 to 1000 nM and 100 to 1000 nM.
The matching figures for `C[C@H](Nc1ncc2[nH]c(=O)n(C)c2n1)c1cc2cc(Cl)ccc2[nH]c1=O` [Compound I-58, 6-chloro-3-[(1S)-1-[(9-methyl-8-oxo-8,9-dihydro-7H-purin-2-yl)amino]ethyl]-1,2-dihydroquinolin-2-one]: 1000 to 10000 nM and 100 to 1000 nM.
`C[C@H](Nc1ncc2c(n1)NC(=O)C2)c1cc2cc(Cl)ccc2[nH]c1=O` [Compound I-60, 6-chloro-3-[(1S)-1-({6-oxo-5H,6H,7H-pyrrolo[2,3-d]pyrimidin-2-yl}amino)ethyl]-1,2-dihydroquinolin-2-one]: the IC50 in test [1] (setting [5]) was 1000 to 10000 nM; in test [3] (setting [5]), 100 to 1000 nM.
The matching figures for `C[C@H](Nc1ncc2c(n1)N(C)C(=O)C2)c1cc2cc(Cl)ccc2[nH]c1=O` [Compound I-61, 6-chloro-3-[(1S)-1-({7-methyl-6-oxo-5H,6H,7H-pyrrolo[2,3-d]pyrimidin-2-yl}amino)ethyl]-1,2-dihydroquinolin-2-one]: 100 to 1000 nM and 100 to 1000 nM.

For orientation: IC50 means the midpoint of a concentration-inhibition curve.
